Measured values taken from US7592326B2, “Method for stimulating the immune, inflammatory or neuroprotective response” (priority 2004, dated 2009).

Columns and labels:
lung leukocytes = assay: Lung leukocyte accumulation in Klebsiella-infected mice (lung digest, flow cytometry); format: in vivo, Balb/c mice
[1] = tested on: Primary hippocampal cells; assay: Staurosporine-induced cell death in primary hippocampal cultures (CellTiter 96 AQueous Assay); format: cell-based; settings: 100 nM, 22 h
Procedure: To assess the role of cyclic dinucleotides in modulating the neurological response, i.e., prevent cell death induced by staurosporine (STS) in primary hippocampal nerve cells, the effects of c-di-GMP on hippocampal cells was analyzed. Primary hippocampal cells were prepared according to previously described methods (Pereira et al., 1993). Briefly, the hippocampi were dissected from the brain of 18-day-old fetal rats. Following enzymatic and mechanical dissociation, cells were plated at a density of 100,000 cells/well in 96-well plates pre-coated with matrigel. At the 7th day after plating, cultures were subjected to one of the following treatments: (i) vehicle (24 h), (ii) STS (100 nM, 22 h), (iii) c-di-GMP (24 h), (iv) c-di-GMP (2 h) followed by c-di-GMP -plus-STS (22 h), (v) c-di-GMP -plus-STS (24 h), or (vi) STS (2 h) followed by c-di-GMP -plus-STS (22 h). At the end of the treatments, cell viability was analyzed using CellTiter 96® AQueous Assay (Promega). The assay involves the spectrophotometric measurement (at 490 nm) of the mitochondrial conversion of a tetrazolium dye into a colorful product. The absorbance of the assay correlates with the number of metabolically active cells.

human basophils [2] = assay: IL-3 dependent IL-13 secretion by human basophils; format: cell-based; settings: for inhibition of IL-13 induced by IL-3: 18-20 h culture, FIG. 18A
human basophils [3] = assay: IgE-dependent IL-4 secretion by human basophils; format: cell-based
Procedure: (§1) Studies investigating the effect of the TBDMS-cGpGp analog on IgE-dependent IL-4 and histamine secretion induced by cross-linking were then performed. […] The inhibition of IL-4 was evident using the TBDMS-cGpGp analog as well as the cGpAp analog. Note that IgE-mediated histamine release is 90% complete within 20 minutes after stimulation- histamine is preformed and store in cytoplasmic granules. Although IL-4 is not preformed, it is rapidly generated denovo and secreted within 3-6 hours. In performing these experiments, a standard protocol for testing various anti-allergic drugs was used.
(§2) Specifically, the basophils were pretreated 15 minutes with the analogs before adding anti-IgE antibody for activation. Culture supernatants were analyzed for histamine and IL-4 three hours later. Thus, unlike the IL-13 induced by IL-3 during an 18-20 h culture, the release of histamine and IL-4 are far more rapid under IgE crosslinking conditions. It may be that inhibition would be greater if a greater pre-incubation time was performed with the analogs. Additional experiments will test different pre-incubation times to determine whether greater inhibition is observed. It is important to note that neither analog induced histamine release or IL-4 when used alone at the 50 uM concentration. T this is additional evidence that the inhibitory effect in not due to toxicity- histamine would most likely be released if the analogs were causing cell lysis.
IL-4 measurements were made in an experiment where the cyclic dinucleotide analogs were tested in a 1 hour pretreatment of basophils before activating with anti-IgE antibody. The control release to anti-IgE antibody was 262 pg/106 basophils (a relatively robust response being that cell responsiveness decreases the longer the wait before activating). Both the TBMDS-cGpGp and cGpAp analogs produced ˜30% inhibition at the 50μM concentration. […] It may be that overnight incubation with cyclic dinucleotide (similar to the IL-13 inhibition studies) would show even greater inhibition.

[4] = format: in vitro ADME, human
Procedure: Commercially supplied pooled human serum (100 uL) (Cambrex Bio Science Walkersville, Inc.) was diluted in ion-exchanged water. An aliquot of the resulting human serum solution was subjected to HPLC analysis (conditions: COSMOSIL 5C18-AR-II column (4.6×200 mm); buffer A; buffer B, 80% acetonitrile in water; gradient, 0-10 min A 100%, 10-60 min A:B=100:0 to A:B=40:60 in 50 min; detection 254 nm, flow rate, 1.0 mL/min, temperature 40° C.). Separately, a 100 uM of c-di-GMP solution in human serum was prepared by adding 100 uL of a 500 uM c-di-GMP aqueous solution to a mixture of 390 uL of human serum and 10 uL of 40 mM 2-methylbenzimidazole (an internal standard for estimating the extent of decomposition of c-di-GMP) in methanol. An aliquot of the test solution was diluted immediately after the preparation solution and then heated at 100° C. for 5 min to quench activity of enzymes. The resulting test sample was subjected to HPLC analysis after 24 h treatment. Peaks that appeared in both analyses were compared. Results are based on 3 independent experiments.

human basophils [5] = assay: IgE-dependent histamine release by human basophils; format: cell-based; settings: 15 minutes pretreatment
Procedure: as §1
as §2, with “T this is additional evidence that the inhibitory effect in not due to toxicity- histamine would most likely be released if the analogs were causing cell lysis.” left out

basophils = assay: SOCS expression in basophils (real-time PCR); format: cell-based, human
Procedure: Whether or not cyclic dinucleotides affected induction of SOCS (Suppresser Of Cytokine Synthesis) expression in basophils treated with CDN's was then tested. […] Cells were treated for 18 h, total RNA isolated, and RT-PCR performed for SOCS-1, SOCS-3, and the HPRT housekeeping gene. The fact that cGpGp also induces SOCS-1 may explain why some inhibition of IL-3-induced IL-13 secretion is observed with this cyclic dinucleotide analog. […] In the current IL-13 assay, the cyclic dinucleotide is added simultaneously with IL-3. The TBDMS-cGpGp likely induces SOCS-1 expression faster and thus accounts for greater inhibition of IL-13. […] While modest inhibitory activity with cGpGp was observed, evidence that cGpGp induces SOCS-1 and sometimes better than TBDMS-cGpGp at this particular time point was observed. These differences might be explained by kinetics and it may be that SOCS gene expression would be higher following TBDMS-cGpGp treatment when examined at an earlier time point.

pDC = assay: Cytokine secretion by pDC treated with TBDMS analog; format: cell-based, human
Procedure: Whether or not TBDMS would directly induce (or affect CpG-dependent) cytokine (IL-6, TNF-alpha, IL-10) secretion was then tested. […] IL-6 was not measured. […] Cells from one of the 3 subjects did secrete 100-200 pg/10^6 cells more TNF-alpha than the ˜400 secreted in medium alone. The same pattern was seen using these cells when the combination of CpG and TMDMS was used. However, these effects were not evident for the other two pDC preparations.

[6] = 50 uM, 15 minutes pretreatment, supernatants three hours later, FIG. 18B
[7] = 50μM, 1 hour pretreatment, control release 262 pg/106 basophils

Nc1nc2c(ncn2[C@@H]2O[C@@H]3COP(=O)(O)O[C@H]3[C@H]2O)c(=O)[nH]1 [CTL, reference compound]
Total number lung cells (lung leukocytes; i.n. pretreatment 48 and 24 hr prior, lung digests 48 hrs after K. pneumoniae (kp), uninfected 2.7 × 10^7): 3.57 × 10^7 | αβTcr^+, CD69^+ (lung leukocytes; lung digests 48 hrs after kp, uninfected 0.33 × 10^5): 2.7 × 10^5 | DX5^+, CD69^+ (lung leukocytes; lung digests 48 hrs after kp, uninfected 0.78 × 10^5): 2.7 × 10^5 | PMN (lung leukocytes; lung digests 48 hrs after kp, uninfected 0.8 × 10^6): 7.35 × 10^6 | DX5^+ (NK) (lung leukocytes; lung digests 48 hrs after kp, uninfected 1.3 × 10^6): 2.5 × 10^6 | DX5^+, αβγδTcr^+(NK T^+) (lung leukocytes; lung digests 48 hrs after kp, uninfected 1.6 × 10^5): 4.7 × 10^5 | Mono/Macrophage (lung leukocytes; lung digests 48 hrs after kp, uninfected 2.3 × 10^7): 2.88 × 10^7 | αβTcr^+ (lung leukocytes; lung digests 48 hrs after kp, uninfected 2.6 × 10^6): 3.38 × 10^6

CN[C@@H]1C[C@H]2O[C@@](C)([C@@H]1OC)n1c3ccccc3c3c4c(c5c6ccccc6n2c5c31)C(=O)NC4 [STS, staurosporine, reference compound]
cell death in primary hippocampal cultures [1]: caused significant cell death

Nc1nc2c(ncn2[C@@H]2O[C@@H]3COP(=O)(O)O[C@H]4[C@@H](O)[C@H](n5cnc6c(N)ncnc65)O[C@@H]4COP(=O)(O)O[C@H]3[C@H]2O)c(=O)[nH]1 [cGpAp]
effect on IL-13 induced by IL-3 (human basophils [2]; under the conditions tested): little effect | inhibition of IgE-dependent IL-4 (human basophils [3]; [6]): evident | inhibition of IgE-dependent IL-4 (human basophils [3]; [7]): ~30%

Cc1nc2ccccc2[nH]1 [2-methylbenzimidazole, reference compound]
stability in human serum [4]: stable | solubility in water, methanol, and acetonitrile (Solubility): fairly soluble

CC(C)(C)[Si](C)(C)O[C@@H]1[C@@H]2OP(=O)(O)OC[C@H]3O[C@@H](n4cnc5c(=O)[nH]c(N)nc54)[C@H](O)[C@@H]3OP(=O)(O)OC[C@H]2O[C@H]1n1cnc2c(=O)[nH]c(N)nc21 [TBDMS-cGpGp, 2′-O-TBDMS-c-di-GMP]
effect on IgE-dependent histamine release (human basophils [5]): essentially no effect | time of SOCS mRNA peak (basophils): ~12 h | SOC-3 mRNA (basophils; 18 h treatment): induced | SOCS-1 mRNA (basophils; 18 h treatment): induced | inhibition of IL-13 induced by IL-3 (human basophils [2]; 10 micromolar): 30-40% | inhibition of IL-13 induced by IL-3 (human basophils [2]; 50 micromolar, at least 5 independent experiments): 70-80% | effect on TNF-alpha and IL-10 (pDC; alone or with CpG): little to no effect | TNF-alpha secreted above the ˜400 in medium alone (pDC; cells from one of the 3 subjects): 100-200 pg/10^6 cells | IL-10 secretion (pDC; used by itself, n=3): did not cause IL-10 secretion | inhibition of IgE-dependent IL-4 (human basophils [3]; [6]): 30% | inhibition of IgE-dependent IL-4 (human basophils [3]; [7]): ~30%

Nc1nc2c(ncn2[C@@H]2O[C@@H]3COP(=O)(O)O[C@H]4[C@@H](O)[C@H](n5cnc6c(=O)[nH]cnc65)O[C@@H]4COP(=O)(O)O[C@H]3[C@H]2O)c(=O)[nH]1 [cGpIp]
enhancement of IL-13 induced by IL-3 (human basophils [2]; two experiments): 25%
